Data reported in DBAASP.
Values after ≈ are worked out from the molar mass of the structure shown. Blank lines part the entries; values can stand above or below the compound they belong to.

Tests used:
Test in all cases: ≥ marks a high value that may be exact or a test limit, other limits are often not marked, values filed in µg/mL are converted to µM
[1] = tested on: Pseudomonas aeruginosa CICC 21625
[2] = tested on: Pseudomonas aeruginosa 25349
[3] = tested on: Pseudomonas aeruginosa CICC 21630
[4] = tested on: Pseudomonas aeruginosa CICC 11421
[5] = tested on: Pseudomonas aeruginosa 21328
[6] = tested on: Pseudomonas aeruginosa CICC 10419
[7] = tested on: Staphylococcus aureus ATCC 29213
[8] = tested on: Pseudomonas aeruginosa ATCC 27853
[9] = tested on: Pseudomonas aeruginosa CICC 11411
[10] = tested on: Pseudomonas aeruginosa CICC 11431
[11] = tested on: Escherichia coli ATCC 25922
Bacillus cereus = tested on: Bacillus cereus
Vibrio parahaemolyticus = tested on: Vibrio parahaemolyticus
Escherichia coli = tested on: Escherichia coli
Cryptococcus neoformans = tested on: Cryptococcus neoformans
Pseudomonas aeruginosa = tested on: Pseudomonas aeruginosa
Candida albicans = tested on: Candida albicans
Aeromonas hydrophila = tested on: Aeromonas hydrophila
[12] = tested on: Corynebacterium glutamicum
[13] = tested on: Staphylococcus epidermidis
Staphylococcus aureus = tested on: Staphylococcus aureus
Vibrio alginolyticus = tested on: Vibrio alginolyticus
Bibersteinia trehalosi = tested on: Bibersteinia trehalosi
[14] = tested on: Mannheimia haemolytica Serovar 1
Pasteurella multocida = tested on: Pasteurella multocida
[15] = tested on: Corynebacterium pseudotuberculosis ATCC 19410
[16] = tested on: Pseudomonas aeruginosa PAO1
[17] = tested on: Mannheimia haemolytica Serovar 2
[18] = tested on: Salmonella enterica subsp. arizonae
[19] = tested on: Mannheimia haemolytica Serovar 6
Klebsiella pneumoniae = tested on: Klebsiella pneumoniae
Aspergillus fumigatus = tested on: Aspergillus fumigatus
[20] = tested on: Staphylococcus aureus ATCC 25923
Escherichia coli C25 = tested on: Escherichia coli C25
[21] = tested on: Pseudomonas aeruginosa ATCC 15692
[22] = tested on: Staphylococcus aureus 3518
[23] = tested on: Pseudomonas aeruginosa 4007
[24] = tested on: Salmonella typhimurium KCTC 1926
[25] = tested on: Pseudomonas aeruginosa CCARM 2073
[26] = tested on: Pseudomonas aeruginosa 3241
[27] = tested on: Staphylococcus epidermidis KCTC 1917
[28] = tested on: Staphylococcus aureus CCARM 3709
[29] = tested on: Pseudomonas aeruginosa CCARM 2075
[30] = tested on: Staphylococcus aureus CCARM 3125
[31] = tested on: Listeria monocytogenes KCTC 19111
[32] = tested on: Staphylococcus aureus 3399
[33] = tested on: Klebsiella pneumoniae KpC+001825971
[34] = tested on: Escherichia coli KpC+001812446
[35] = tested on: Klebsiella pneumoniae ATCC 13883

- MIC [1]: ≥ 125 µM
- MIC [2]: 15.6 µM (≈ 32 µg/mL)
- MIC [3]: ≥ 125 µM
- MIC [4]: ≥ 125 µM
- MIC [5]: ≥ 125 µM
- MIC [6]: ≥ 125 µM
- MIC [7]: 31.2 µM (≈ 64 µg/mL)
- MIC [8]: 62.4 µM (≈ 128 µg/mL)
- MIC [9]: ≥ 125 µM
- MIC [10]: ≥ 125 µM
- MIC [11]: 31.2 µM (≈ 64 µg/mL)
Structure (SMILES): C[C@H](N)C(=O)N[C@@H](CCCN=C(N)N)C(=O)N[C@@H](CCCN=C(N)N)C(=O)N[C@@H](C)C(=O)N[C@@H](CCCN=C(N)N)C(=O)N[C@@H](CCCN=C(N)N)C(=O)N[C@@H](CCCN=C(N)N)C(=O)N[C@@H](Cc1c[nH]c2ccccc12)C(=O)N[C@@H](CCCN=C(N)N)C(=O)N[C@@H](CCCN=C(N)N)C(=O)N[C@@H](CCCN=C(N)N)C(=O)N[C@@H](C)C(=O)N[C@@H](CCCN=C(N)N)C(=O)N[C@@H](CCCN=C(N)N)C(=O)N[C@@H](C)C(N)=O [ARRARRRWRRRARRA]

- MIC (Bacillus cereus): 17.7 µM (≈ 45.8 µg/mL)
- MIC (Escherichia coli): 17.7 µM (≈ 45.8 µg/mL)
- MIC (Cryptococcus neoformans): 2.21 µM (≈ 5.73 µg/mL)
- MIC (Pseudomonas aeruginosa): 35.4 µM (≈ 91.7 µg/mL)
- MIC (Candida albicans): 17.7 µM (≈ 45.8 µg/mL)
- MIC (Aeromonas hydrophila): ≥ 50 µM
- MIC [12]: 2.21 µM (≈ 5.73 µg/mL)
- MIC [13]: 17.7 µM (≈ 45.8 µg/mL)
- MIC (Staphylococcus aureus): 4.42 µM (≈ 11.5 µg/mL)
- MIC (Vibrio alginolyticus): ≥ 50 µM
Structure (SMILES): CC[C@H](C)[C@H](NC(=O)[C@H](C)NC(=O)CNC(=O)[C@@H](NC(=O)[C@@H](NC(=O)[C@H](Cc1cnc[nH]1)NC(=O)[C@H](CCCN=C(N)N)NC(=O)[C@H](Cc1ccccc1)NC(=O)[C@@H](N)Cc1ccccc1)[C@@H](C)CC)C(C)C)C(=O)N[C@@H](CO)C(=O)N[C@@H](CCCN=C(N)N)C(=O)N[C@H](C(=O)N[C@@H](Cc1ccccc1)C(=O)NCC(=O)N[C@@H](CCC(N)=O)C(=O)N[C@@H](CCCCN)C(=O)N[C@@H](CCC(N)=O)C(=O)N[C@@H](CCCN=C(N)N)C(=O)N[C@@H](CC(=O)O)C(=O)N[C@@H](CCSC)C(=O)N[C@@H](C)C(=O)N[C@@H](CC(=O)O)C(=O)O)[C@@H](C)CC [FFRHIVGAISRIFGQKQRDMAD]
- MIC (Vibrio parahaemolyticus): ≥ 50 µM

- MIC (Bibersteinia trehalosi): 11.1 µM (≈ 20 µg/mL)
- MIC (Pasteurella multocida): 8.33 µM (≈ 15 µg/mL)
- MIC [15]: 11.1 µM (≈ 20 µg/mL)
- MIC [16]: 2.78 µM (≈ 5 µg/mL)
- MIC [18]: 11.1 µM (≈ 20 µg/mL)
- MIC (Staphylococcus aureus): > 11.1 µM
- MIC (Klebsiella pneumoniae): > 11.1 µM
- MIC (Aspergillus fumigatus): 22.2 µM (≈ 40 µg/mL)
Structure (SMILES): CC[C@H](C)[C@H](N)C(=O)N[C@@H](CCCN=C(N)N)C(=O)N[C@@H](CCCN=C(N)N)C(=O)N[C@H](C(=O)N[C@H](C(=O)N[C@@H](CCCN=C(N)N)C(=O)N[C@@H](CCCCN)C(=O)N[C@H](C(=O)N[C@H](C(=O)N[C@@H](Cc1cnc[nH]1)C(=O)N[C@H](C(=O)N[C@H](C(=O)N[C@@H](CCCCN)C(=O)N[C@@H](CCCCN)C(=O)O)[C@@H](C)CC)[C@@H](C)CC)[C@@H](C)CC)[C@@H](C)CC)[C@@H](C)CC)[C@@H](C)CC [IRRIIRKIIHIIKK]
- MIC [14]: 5.55 µM (≈ 10 µg/mL)
- MIC [17]: 2.33 µM (≈ 4.2 µg/mL)
- MIC [19]: 3.72 µM (≈ 6.7 µg/mL)

- MIC [20]: 33 µM (≈ 56.6 µg/mL)
- MIC (Escherichia coli C25): 8.2 µM (≈ 14.1 µg/mL)
Structure (SMILES): CC[C@H](C)[C@H](NC(=O)CNC(=O)[C@H](CCCCN)NC(=O)[C@H](Cc1ccc(O)cc1)NC(=O)[C@@H](NC(=O)[C@H](CCCCN)NC(=O)[C@H](Cc1ccccc1)NC(=O)[C@H](Cc1c[nH]c2ccccc12)NC(=O)[C@@H](N)CCCCN)C(C)C)C(=O)N[C@@H](Cc1ccc(O)cc1)C(=O)N[C@@H](CCCCN)C(=O)N[C@@H](CCCCN)C(=O)N[C@@H](CCCCN)C(N)=O [KWFKVYKGIYKKK]

- MIC [21]: 2 µM (≈ 3.67 µg/mL)
- MIC [22]: 2 µM (≈ 3.67 µg/mL)
- MIC [23]: 4 µM (≈ 7.34 µg/mL)
- MIC [24]: 2 µM (≈ 3.67 µg/mL)
- MIC [25]: 2 µM (≈ 3.67 µg/mL)
- MIC [26]: 2 µM (≈ 3.67 µg/mL)
- MIC [27]: 2 µM (≈ 3.67 µg/mL)
- MIC [28]: 2 µM (≈ 3.67 µg/mL)
- MIC [29]: 2 µM (≈ 3.67 µg/mL)
- MIC [20]: 4 µM (≈ 7.34 µg/mL)
- MIC [30]: 4 µM (≈ 7.34 µg/mL)
- MIC [11]: 2 µM (≈ 3.67 µg/mL)
- MIC [31]: 2 µM (≈ 3.67 µg/mL)
- MIC [32]: 4 µM (≈ 7.34 µg/mL)
Structure (SMILES): NCCCC[C@H](NC(=O)[C@H](Cc1ccc(O)cc1)NC(=O)[C@H](Cc1c[nH]c2ccccc12)NC(=O)[C@H](CCCCN)NC(=O)[C@H](CCCCN)NC(=O)[C@H](Cc1ccc(O)cc1)NC(=O)[C@H](Cc1c[nH]c2ccccc12)NC(=O)[C@H](CCCCN)NC(=O)[C@H](CCCCN)NC(=O)[C@H](Cc1ccc(O)cc1)NC(=O)[C@H](Cc1c[nH]c2ccccc12)NC(=O)[C@@H](N)CCCCN)C(N)=O [KWYKKWYKKWYK]

- MIC [33]: 8 µM (≈ 17 µg/mL)
- MIC [34]: 4 µM (≈ 8.48 µg/mL)
- MIC [11]: 4 µM (≈ 8.48 µg/mL)
- MIC [35]: 30 µM (≈ 63.6 µg/mL)
Structure (SMILES): CC[C@H](C)[C@H](NC(=O)[C@H](CCCCN)NC(=O)[C@H](CCCCN)NC(=O)[C@H](Cc1ccccc1)NC(=O)[C@H](CC(C)C)NC(=O)[C@H](CCCCN)NC(=O)[C@H](Cc1c[nH]c2ccccc12)NC(=O)[C@H](CCCCN)NC(=O)[C@H](Cc1cnc[nH]1)NC(=O)[C@@H](NC(=O)[C@@H](N)C(C)C)[C@@H](C)CC)C(=O)NCC(=O)N[C@@H](C)C(=O)N[C@H](C(=O)N[C@@H](CC(C)C)C(=O)N[C@@H](CCCCN)C(=O)N[C@H](C(=O)N[C@@H](CC(C)C)C(=O)O)C(C)C)C(C)C [VIHKWKLFKKIGAVLKVL]
